Laboratory results: US12187782B2, “PDL1 peptides for use in cancer vaccines” (IO BIOTECH APS, priority 2016, dated 2025)
No end group written: not given here.

Key:
splenocytes = assay: IFNγ-Elispot of splenocytes from IFNγ-injected mice, stimulated ex vivo with mPDL1 peptides (Example 3); format: cell-based, C56BL/6 mice; details: splenocytes after prior IFNγ injection; 5 μg/ml peptide ex vivo, 18-20 hours
Method: C56BL/6 mice were injected with 1 μg IFNγ in 200 μl PBS i.p (or no injection for control) two days apart (day 0+2) to simulate inflammation. On day 5 the mice were sacrificed and a single cell solution of the removed spleen was made for further analysis by IFNγ-Elispot.
9×10^5 splenocytes/well were stimulated ex vivo in Elispot plates with 5 μg/ml peptides from murine (m)PDL1 for 18-20 hours. Spot count for the peptide stimulated wells was subtracted the background (spot count of wells with no peptide stimulation).
• Following sacrifice of mice, spleen (and draining lymph nodes (dLNs)) were removed. • Spleen and dLNs was smashed through a […] cell strainer into a 50 ml tube with media (RPMI+10% FCS+1% pen/strep) and washed for at 300 G for 5 minutes, repeated for dLNs. Splenocytes was lysed with RBC lysis buffer for 1 min and washed in media twice. • Cells were counted and transferred to IFNγ Ab-coated Elispot plates in cell number of 9×10^5 cells/well. Coating antibody: Anti-mouse IFN-g mAb AN18 (Mabtech cat no. 3321-3-1000). • Stimulatory peptides were added to designated wells in concentrations of 5 μg/ml. Control wells were not stimulated with peptide. • Elispot plates were developed after 18-20 hours. • Detection antibody Anti-mouse IFN-g mAb R4-6A2-Biotin (Mabtech cat no. 3321-6-1000). […]

[1] = test system: cells from spleen and draining lymph nodes; assay: IFNγ-Elispot of spleen and dLN cells from DNFB-treated mice, stimulated ex vivo with peptide (Example 4); format: cell-based, C56BL/6 mice; details: not with control, 5 μg/ml peptide ex vivo
Method: A solution of 0.15% 2,4-dinitrofluorobenzene (DNFB; an allergen) in 1:4 olive oil/ace-tone (OOA) (or just OOA as a control) was painted on back of both ears of C56BL/6 mice for 3 consecutive days (days 0-2). On day 5 the mice were sacrificed and a single cell solution of the removed spleen and draining lymph nodes (dLNs) was made for further analysis by IFNγ-Elispot.
8-9×10^5 cells/well were stimulated ex vivo in Elispot plates with 5 μg/ml mPD-L1long1 (mLong1 from Example 3) or mPD-L1short (a part of the mLong1 peptide having the sequence […] (SEQ ID NO: 101)) for 18-20 hours. Spot count for the peptide stimulated wells was subtracted the background (spot count of wells with no peptide stimulation).
(§1) • Following sacrifice of mice, spleen (and draining lymph nodes (dLNs)) were removed. • Spleen and dLNs was smashed through a […] cell strainer into a 50 ml tube with media (RPMI+10% FCS+1% pen/strep) and washed for at 300 G for 5 minutes, repeated for dLNs. Splenocytes was lysed with RBC lysis buffer for 1 min and washed in media twice. • Cells were counted and transferred to IFNγ Ab-coated Elispot plates in cell number of 9×10^5 cells/well. Coating antibody: Anti-mouse IFN-g mAb AN18 (Mabtech cat no. 3321-3-1000). • Stimulatory peptides were added to designated wells in concentrations of 5 μg/ml. Control wells were not stimulated with peptide. • Elispot plates were developed after 18-20 hours. • Detection antibody Anti-mouse IFN-g mAb R4-6A2-Biotin (Mabtech cat no. 3321-6-1000). Avidin-enzyme conjugate (AP-Avidin; Calbiochem/Invitrogen Life Technologies) and enzyme substrate, NBT/BCIP (Invitrogen Life Technologies) used for visualization. • Spot count for peptide-stimulated wells was always subtracted the corresponding wells without peptide stimulation (the background) • Negative values were sat to zero.

PD-L1-specific T cells = assay: Vaccination of mice with mPD-L1long1, IFNγ-Elispot (Example 5); format: in vivo, C56BL/6 mice
Method: C56BL/6 mice were vaccinated subcutaneously (s.c) on the lower back with 100 μg mPD-L1long1 (mLong1 from Example 3) with or without Montanide as an adjuvant (only Montanide as a control) at day 0. On day 7 the mice were sacrificed and a single cell solution of the removed spleen was made for further analysis by IFNγ-Elispot.
9×10^5 splenocytes/well were stimulated ex vivo in Elispot plates with 5 μg/ml mPD-L1long1 or mPD-L1short for 18-20 hours. Spot count for the peptide stimulated wells was subtracted the background (spot count of wells with no peptide stimulation).
as §1

[2] = test system: CD8 T-cells specific for the minimal epitope PDL111; assay: ELISPOT with PDL111-specific CD8 T cells; format: cell-based, human
Excerpt: (§2) The ELISPOT technique enabled screening a high number of peptide antigens for T-cell recognition, despite the availability of relatively few T-cells. We used the ELISPOT assay to quantify peptide-specific, effector cells that secreted IFN-γ, as described in Example 1. We performed the assays according to the guidelines provided by the cancer immunotherapy immunoguiding program (CIP; cimt.eu/cimt/files/dl/cip_guidelines.pdf). To measure T-cell reactivity, nitrocellulose-bottomed 96-well plates (MultiScreen MSIPN4W; Millipore) were coated overnight with the relevant antibodies. The wells were washed and blocked with X-vivo medium for 2 h. The Tumor Infiltrating Lymphoctyes (TILs) were added at different cell concentrations in triplicate wells, with PD-L1 peptides or with control peptide, and incubated overnight. The following day, the wells were washed, and the relevant biotinylated secondary antibody (Mabtech) was added, followed by the avidin-enzyme conjugate (AP-Avidin; Calbiochem/Invitrogen Life Technologies); finally, we added the enzyme substrate, NBT/BCIP (Invitrogen Life Technologies) for visualization. The spots on the developed ELISPOT plates were analyzed on a CTL ImmunoSpot S6 Ultimate-V analyzer with Immunospot software, v5.1.
[…] We analysed the reactivity towards PDL111, PDL1242-264 ([…]— PDLong2, SEQ ID NO: 91), 10104.1 (—OH) and 10104.1 (NH). […]

[3] = test system: tumor-infiltrating lymphocytes from 7 melanoma patients; assay: IFNγ ELISPOT on tumor-infiltrating lymphocytes (Example 2); format: cell-based, human
Excerpt: as §2

[4] = test system: PBMCs from malignant melanoma patients; assay: Co-stimulation assay: PBMCs stimulated with DCvacc plus peptide, read by intracellular TNFα/IFNγ staining; format: cell-based, human; details: for CD4+ T cell reactivity toward DCvacc increased by co-stimulation (donors) / CD8+ T cell reactivity toward DCvacc increased by co-stimulation (donors): eight donors, vs control peptide
Method: PBMCs from malignant melanoma patients were stimulated with autologous DCvacc with ratio 1:10 DCvacc:PBMCs. […] Second stimulation with DCvacc was performed on day 7 and followed by peptide co-stimulation on day […] (120 U/mL) was added a day after each peptide co-stimulations. A week after second peptide co-stimulation the cultures were analyzed for DCvacc response using intracellular cytokine staining.
For detection of cell subpopulations producing cytokines (IFN-γ and TNF-α), PBMCs that were stimulated with DCvacc and co-stimulated with peptides for two weeks, were stimulated with DCvacc (ratio 1:10 DCvacc:PBMCs) for 5 hours at 37° C. with 5% CO2. GolgiPlug (BD) was added at a dilution of 1:200 after the first hour of incubation. After 4 additional hours cells were washed twice with PBS, stained fluorochrome conjugated antibodies for surface markers (CD3-Amcyan, CD4-PerCP and CD8-Pacific Blue, all from BD). Cells were washed one additional time and thereafter were fixed and permeabilized with Fixation/Permeabilization and Permeabilization Buffer (eBioscience), according to manufacturer's instructions. Cells were subsequently stained with fluorochrome-conjugated antibodies for intracellular cytokines. The following combinations were used: IFN-γ-PE-CY7 (BD), TNF-α-APC (eBioscience). […] Stained cells were analyzed using a BD FACSCanto II flow cytometer and further analysis was performed with BD FacsDiva Software.

[5] = peptide-vaccinated mice (100 μg s.c.) compared to adjuvant alone, day 7
[6] = PBMCs before vaccination (baseline)

MRIFAGIIFTACCHLLRA (listed as Mus musculus) [mLong1]
recognition by T cells, IFNγ-Elispot (splenocytes): most positive results
recognition by dLNs, IFNγ-Elispot [1]: recognized
recognition by splenocytes, IFNγ-Elispot [1]: recognized
PD-L1-specific T cell response in the draining lymph nodes (DLNs) (PD-L1-specific T cells; [5]): strong
PD-L1-specific T cell response in the spleens (PD-L1-specific T cells; [5]): strong
PD-L1-specific response by IFNγ Elispot, ex vivo stimulation with mPD-L1long (PD-L1-specific T cells; vaccinated mice): increased
PD-L1-specific response by IFNγ Elispot, ex vivo stimulation with mPD-L1 short (PD-L1-specific T cells; vaccinated mice): increased

Arg-Thr-His-Leu-Val-Ile-Leu-Gly-Ala-Ile-Leu-Leu-Cys-Leu-Gly-Val-Ala-Leu-Thr-Phe-Ile-Phe-Arg-Leu-Arg-Lys-Gly-Arg-NH2 (RTHLVILGAILLCLGVALTFIFRLRKGR-NH2) [IO104.1-NH2]
reactivity of PDL111-specific CD8 T cells, ELISPOT [2]: able to react

RTHLVILGAILLCLGVALTFIFRLRKGR (not fully specified; listed as Homo sapiens) [IO104.1, positions 238 to 265 of hPD-L1; C terminal acid or amide form]
T cell response, IFNγ ELISPOT (patients responding) [3]: three of the patients

Arg-Thr-His-Leu-Val-Ile-Leu-Gly-Ala-Ile-Leu-Leu-Cys-Leu-Gly-Val-Ala-Leu-Thr-Phe-Ile-Phe-Arg-Leu-Arg-Lys-Gly-Arg-OH (RTHLVILGAILLCLGVALTFIFRLRKGR-OH) [IO104.1-OH]
reactivity of PDL111-specific CD8 T cells, ELISPOT [2]: able to react

FMTYWHLLNAFTVTVPKDL (listed as Homo sapiens) [PDLong1]
CD4+ T cell reactivity toward DCvacc increased by co-stimulation (donors) ([4]; PBMCs after four vaccinations): all donors
CD8+ T cell reactivity toward DCvacc increased by co-stimulation (donors) ([4]; PBMCs after four vaccinations): five out of eight donors
CD4+ T cell reactivity toward DCvacc increased by co-stimulation (donors) [4, 6]: six out of eight donors
CD8+ T cell reactivity toward DCvacc increased by co-stimulation (donors) [4, 6]: seven out of eight donors
CD4+ T cells reacting against DCvacc compared to control peptide ([4]; all cultures, P=0.02): significantly greater extent
CD8+ T cells reacting against DCvacc compared to control peptide ([4]; all cultures, P=0.05): significantly greater extent
number of PBMCs that showed reactivity against DCvacc ([4]; cocultured with peptide compared to the control HIV epitope): increase

GIIFTACCHL (listed as Mus musculus) [mPD-L1short]
recognition by dLNs, IFNγ-Elispot [1]: recognized
recognition by splenocytes, IFNγ-Elispot [1]: recognized

WVLLGSILLFLIVVSTVLLFLRKQV (listed as Mus musculus) [mLong3]
recognition by T cells, IFNγ-Elispot (splenocytes): most positive results
